For series [1], the system named is Fusarium graminearum (F. graminearum). Put plainly: microbe, parasite or virus in culture. It is filed as cell-based.
Series [2] in a line: Solubility classification in representative solvents (Vogel protocol). It is filed as physicochemical. Conditions: 25 °C; for solubility: thermodynamic from solid. On the procedure:
This investigation details how to determine the solubility of terbinafine and its salts, guided by the experimental protocol in Vogel’s Textbook of Practical Organic Chemistry. Based on the Snyder polarity index values of the representative solvents, each solvent was tested for its ability to dissolve the target analytes. The solubility data was classified into three categories based on the observed extent of dissolution. […] The experimental procedures were performed at 25 °C and under ambient pressure.

In series [3] the test system is Botrytis cinerea (B. cinerea). Briefly: In vitro fungicidal activity, mycelial (hyphae) growth inhibition on PDA. It is filed as cell-based.
Series [4] is described as follows: Solubility of saturated solutions by HPLC at 25 °C. It is filed as physicochemical. The text has this: The filtrate was then passed through a 0.22 μm nylon membrane filter and subjected to HPLC analysis. Based on Wang’s report about the chromatographic parameters, modifications to the mobile phase ratio were made. The replicability of the results was ensured by performing each measurement in triplicate.

Series [5] has as its system Valsa malicola (V. mali). Briefly: In vitro fungicidal activity, mycelial (hyphae) growth inhibition on PDA. The format is cell-based.
Series [6] has as its system Pyricularia oryzae (P. oryzae). Briefly: microbe, parasite or virus in culture. The format is cell-based.
Series [7] can be described thus: Surface tension of saturated aqueous solutions, Du Noüy ring method. Conditions: 25 °C.
Description: This method involved adjusting the stage positioning of the solvent container such that a platinum ring could be immersed below the liquid interface or pulled through the meniscus. […] The maximum force was recorded as the surface tension of the solvent. To ensure accuracy, the platinum ring was thoroughly cleaned between each measurement through rinsing with double-distilled water and wiping it dry. The surface tension determination was performed in quadruplicate.
In series [8] the test system is B. cinerea on cherry tomatoes. Put plainly: In vivo antifungal bioassay on cherry tomatoes. Set-up: species or system Botrytis cinerea. Conditions: 20 mg/L; for Diameter of infection (cm) 4 days: 4 days after treatment; for Diameter of infection (cm) 7 days: 7 days after treatment.
Series [9] concerns Pythium aphanidermatum (P. aphanidermatum). Put plainly: In vitro fungicidal activity, mycelial (hyphae) growth inhibition on PDA. The format is cell-based. Conditions: mean ± SD of three replicates.
The subject of series [10] is Rhizoctonia solani (R. solani). Put plainly: microbe, parasite or virus in culture. The format is cell-based.
For series [11], the system named is Phomopsis capsici (P. capsica). Put plainly: In vitro fungicidal activity, mycelial (hyphae) growth inhibition on PDA. The format is cell-based. Conditions: mean ± SD of three replicates.
Series [12] concerns Alternaria solani (A. solani). Described as above. It is filed as cell-based.
The mark [13] stands for this setting: Fusarium graminearum, F. graminearum.
The mark [14] stands for this setting: V. mali, read-out: EC50 (μmol/L).
Setting [15] is: 50 mg/L, mean ± SD of three replicates.
Where [16] appears, read: test amount 0.1 g, Snyder polarity index 4.3.

In brackets after ≈: the same amount, converted by molar mass. Several values for one entry are separate records, joined by “and”; a condition that tells them apart may be missing. Equal values may be shown once. Read-outs that look alike come from different tables or passages of the source.

As for `CN(C/C=C/C#CC(C)(C)C)Cc1cccc2ccccc12` [Terbinafine], the EC50 in series [1] (setting [13]) was 0.07 µg/mL and 250 nM; in series [3] (Botrytis cinerea, B. cinerea, read-out: EC50 (mg/L)), 0.1 mg/L; in series [3] (Botrytis cinerea, B. cinerea, read-out: EC50 (μmol/L)) it was 0.34 µmol/L; in series [5] (V. mali, read-out: EC50 (mg/L)), 1.25 mg/L; in series [5] (setting [14]), 4.28 µmol/L; in [6] (Pyricularia oryzae, P. oryzae), 0.28 µg/mL and 950 nM. The EC50 in [10] (Rhizoctonia solani) was 1.73 µg/mL and 5.94 µM; in series [12] (Alternaria solani, A. solani, read-out: EC50 (mg/L)), 0.07 mg/L; in [12] (Alternaria solani, A. solani, read-out: EC50 (μmol/L)), 0.25 µmol/L. Moreover, the inhibition at 50 µg/mL in series [1] (Fusarium graminearum, read-out: Inhibition Rate at 50 mg/L (%) F. g) was found to be 100%; in series [3] (Botrytis cinerea, 50 mg/L, mean ± SD of three replicates, read-out: Inhibition Rate at 50 mg/L (%) B. c), 100%; in [5] (Cytospora schulzeri, 50 mg/L, mean ± SD of three replicates, read-out: Inhibition Rate at 50 mg/L (%) V. m) it was 100%; in [6] (Pyricularia oryzae, read-out: Inhibition Rate at 50 mg/L (%) P. o, 50 mg/L, mean ± SD of three replicates) it was 99.64 ± 0.36%; in [9] (Pythium aphanidermatum, 50 mg/L, read-out: Inhibition Rate at 50 mg/L (%) P. a), 68.2 ± 1.87%; in [10] (Rhizoctonia solani, 50 mg/L, read-out: Inhibition Rate at 50 mg/L (%) R. s) it was 84.21 ± 0.53%. Moreover, the inhibition at 50 µg/mL in [11] (Diaporthe capsici, 50 mg/L, read-out: Inhibition Rate at 50 mg/L (%) P. c) was 48.75 ± 0.45%; in series [12] (Alternaria solani, 50 mg/L, mean ± SD of three replicates, read-out: Inhibition Rate at 50 mg/L (%) A. s), 100%. The solubility is > 100 mg/mL in series [2] (DMSO, organic solvent or mixture, test amount 0.1 g, Snyder polarity index 6.5, read-out: Solubility in DMSO); > 100 mg/mL in [2] (acetone, organic solvent or mixture, test amount 0.1 g, Snyder polarity index 5.1, read-out: Solubility in Acetone); > 100 mg/mL in series [2] (acetonitrile, organic solvent or mixture, test amount 0.1 g, Snyder polarity index 6.2, read-out: Solubility in Acetonitrile); > 100 mg/mL in [2] (chloroform, organic solvent or mixture, test amount 0.1 g, Snyder polarity index 4.1, read-out: Solubility in Chloroform); > 100 mg/mL in [2] (ethyl acetate, organic solvent or mixture, test amount 0.1 g, Snyder polarity index 4.3, read-out: Solubility in Ethyl acetate); > 100 mg/mL in series [2] (isopropanol, organic solvent or mixture, test amount 0.1 g, read-out: Solubility in Isopropanol). For the same compound, the solubility is > 100 mg/mL in series [2] (methanol, organic solvent or mixture, test amount 0.1 g, Snyder polarity index 6.6, read-out: Solubility in Methanol); > 100 mg/mL in series [2] (n-hexane, organic solvent or mixture, test amount 0.1 g, Snyder polarity index 0.0, read-out: Solubility in n-Hexane); > 100 mg/mL in series [2] (toluene, organic solvent or mixture, test amount 0.1 g, Snyder polarity index 2.3, read-out: Solubility in Toluene); 100 mg/mL (≈ 343 mM) in series [2] (various polar solvents, organic solvent or mixture, read-out: solubility in various polar solvents); < 33.3 mg/mL in [2] (water, test amount 0.1 g, Snyder polarity index 9.0, read-out: Solubility in Water). In series [4] (water, thermodynamic from solid, read-out: water solubility), the solubility at 15 min was 5.22 µM (≈ 1.52 µg/mL). The “surface tension of the saturated aqueous solution” value in series [7] amounted to 59.92 mN·m^−1. Also, the “Diameter of infection (cm) 4 days” value in series [8] came to 0.89 cm. The “Diameter of infection (cm) 7 days” value in series [8] is 1.07 cm.
Regarding `COC(=O)Nc1nc2ccccc2[nH]1` [Carbendazim, reference compound], in series [8], the “Diameter of infection (cm) 4 days” value is 0.85 cm and the “Diameter of infection (cm) 7 days” value amounted to 0.92 cm.
Consider `COC(=O)N(OC)c1ccccc1COc1ccn(-c2ccc(Cl)cc2)n1` [Pyraclostrobin, reference compound], for which the EC50 in series [1] (setting [13]) is 1.43 µg/mL and 3.68 µM; in series [3] (Botrytis cinerea), 0.12 µg/mL and 310 nM; in [5], 0.79 µg/mL and 2.02 µM; in [6] (Pyricularia oryzae, P. oryzae), 0.6 µg/mL and 1.54 µM; in [10] (Rhizoctonia solani), 0.07 µg/mL and 190 nM; in series [12] (Alternaria solani), 0.23 µg/mL and 590 nM. Besides, the “Diameter of infection (cm) 4 days” value in [8] was 0.71 cm. Also, the “Diameter of infection (cm) 7 days” value in [8] was 0.92 cm.
For the compound `CN(C/C=C/C#CC(C)(C)C)Cc1cccc2ccccc12.O=C(O)C1C(C(=O)O)[C@@]2(Cl)C(Cl)=C(Cl)[C@]1(Cl)C2(Cl)Cl` [TIS 2, (E)-N,6,6-trimethyl-N-(naphthalen-1-ylmethyl)hept-2-en-4-yn-1-aminium (1S,4R)-3-carboxy-1,4,5,6,7,7-hexachlorobicyclo [2.2.1]hept-5-ene-2-carboxylate], the “Inhibition Rate at 50 mg/L (%) F. g” value in series [1] (setting [15]) stood at 100 ± 0%. The “EC50 (mg/L)” value in series [1] (F. graminearum) is reported as 0.16 mg/L; in series [3] (B. cinerea), 0.25 mg/L; in [5] (V. mali) it was 4.28 mg/L; in [6] (P. oryzae), 0.88 mg/L; in [10] it was 3.32 mg/L; in series [12] (A. solani) it was 0.18 mg/L. Also, the EC50 in series [1] (F. graminearum, read-out: EC50) is 240 nM; in [3] (B. cinerea, read-out: EC50 (μmol/L)) it was 0.37 µmol/L; in [5] (setting [14]), 6.29 µmol/L; in series [6] (P. oryzae, read-out: EC50) it was 1290 nM; in series [10] (read-out: EC50) it was 4880 nM; in series [12] (A. solani, read-out: EC50 (μmol/L)) it was 0.27 µmol/L. In [2] (test amount 0.1 g, Snyder polarity index 0.0), the “Solubility in n-Hexane” value is listed as “− (“−” means insoluble in a 3 mL solvent, poor solubility)”. Besides, in series [2] (test amount 0.1 g, Snyder polarity index 2.3), the “Solubility in Toluene” value is “− (“−” means insoluble in a 3 mL solvent, poor solubility)”. Besides, the “Solubility in Chloroform” value in series [2] (test amount 0.1 g, Snyder polarity index 4.1) is reported as “− (“−” means insoluble in a 3 mL solvent, poor solubility)”. The “Solubility in Ethyl acetate” value in series [2] (setting [16]) is reported as “− (“−” means insoluble in a 3 mL solvent, poor solubility)”. Also, the “Solubility in Isopropanol” value in series [2] (setting [16]) was “− (“−” means insoluble in a 3 mL solvent, poor solubility)”. In addition, in series [2] (test amount 0.1 g, Snyder polarity index 5.1), the “Solubility in Acetone” value is on record as “− (“−” means insoluble in a 3 mL solvent, poor solubility)”. Moreover, the “Solubility in Acetonitrile” value in [2] (test amount 0.1 g, Snyder polarity index 6.2) is listed as “− (“−” means insoluble in a 3 mL solvent, poor solubility)”. For the same compound, the “Solubility in DMSO” value in series [2] (test amount 0.1 g, Snyder polarity index 6.5) is given as “+ (“+” means soluble in a 1 mL solvent, good solubility)”. Also, the “Solubility in Methanol” value in series [2] (test amount 0.1 g, Snyder polarity index 6.6) was “− (“−” means insoluble in a 3 mL solvent, poor solubility)”. In addition, the “Solubility in Water” value in series [2] (test amount 0.1 g, Snyder polarity index 9.0) is given as “− (“−” means insoluble in a 3 mL solvent, poor solubility)”. The “Inhibition Rate at 50 mg/L (%) B. c” value in series [3] (setting [15]) is 100 ± 0%. Further, the “Solubility, Acetone” value in [4] (Table S1) was found to be 8.23 µM. The “Solubility, Acetonitrile” value in [4] (Table S1) amounted to 0.155 µM. Also, the “Solubility, Chloroform” value in series [4] (Table S1) worked out at 1.39 µM. Moreover, in [4] (Table S1), the “Solubility, Ethyl acetate” value was determined as 0.456 µM. Besides, in [4] (Table S1), the “Solubility, Isopropanol” value is 0.0703 µM. In addition, the “Solubility, Methanol” value in series [4] (Table S1) is 0.0554 µM. Further, in series [4] (Table S1), the “Solubility, Toluene” value was determined as 0.366 µM. Also, the “Solubility, Water” value in series [4] (Table S1) came to 5.62 µM. Besides, the “Solubility, n-Hexane” value in series [4] (Table S1) worked out at 0.0221 µM. For the same compound, the “Inhibition Rate at 50 mg/L (%) V. m” value in [5] (setting [15]) is given as 100 ± 0%. Further, the “Inhibition Rate at 50 mg/L (%) P. o” value in series [6] (setting [15]) amounted to 96.09 ± 0.36%. Further, in series [7], the “surface tension of the saturated aqueous solution” value came out at 62.78 mN·m^−1. Moreover, the “Inhibition Rate at 50 mg/L (%) P. a” value in series [9] is 69.65 ± 1.7%. Further, the “Inhibition Rate at 50 mg/L (%) R. s” value in series [10] (50 mg/L) stood at 80.75 ± 0.72%. Also, the “Inhibition Rate at 50 mg/L (%) P. c” value in [11] turned out to be 43.85 ± 1.61%. Besides, the “Inhibition Rate at 50 mg/L (%) A. s” value in [12] (setting [15]) turned out to be 98.8 ± 0%.

In general, solubility refers to the concentration that dissolves in the medium under given conditions.

Values taken from PMC10303384, “The Effect of Terbinafine and Its Ionic Salts on Certain Fungal Plant Pathogens” (Molecules, 2023).
